PubChem BioAssay AID1259407 (Chemical Carcinogenesis Research Information System (CCRIS), 2018)
Activity calls are given as the source filed them. No rule for the calls is given here.

Test system: CCRIS mutagenicity, Ames/micronucleus/aberration tests
Assay: CCRIS mutagenicity studies
Conditions: Test System: AMES SALMONELLA TYPHIMURIUM

CN(C)N=O
mutagenic call (Strain/Indicator: TA100, Metabolic Activation: RAT, LIVER, S-9, AROCLOR 1254, Method: STANDARD PLATE): inactive; negative
mutagenic call (Strain/Indicator: TA100, Metabolic Activation: RAT, LIVER, S-9, CYCLOHEXANOL, Method: PREINCUBATION): active; positive
mutagenic call (Strain/Indicator: TA100, Metabolic Activation: RAT, LIVER, S-9, ETHANOL, Method: PREINCUBATION): active; positive
mutagenic call (Strain/Indicator: TA100, Metabolic Activation: RAT, LIVER, S-9, KC500 OR PHENOBARBITAL, Method: LIQUID SUSPENSION): active; positive
mutagenic call (Strain/Indicator: TA100, Metabolic Activation: RAT, LIVER, S-9, N-BENZYLIMIDAZOLE, Method: PREINCUBATION): active; positive
mutagenic call (Strain/Indicator: TA100, Metabolic Activation: RAT, LIVER, S-9, PHENOBARBITAL, Method: PREINCUBATION): active; positive
mutagenic call (Strain/Indicator: TA100, Metabolic Activation: RAT, LUNG, S-9, Method: STANDARD PLATE): inactive; negative
mutagenic call (Strain/Indicator: TA100, Metabolic Activation: RAT, NASAL, S-9, Method: STANDARD PLATE): inactive; negative
mutagenic call (Strain/Indicator: TA100, Metabolic Activation: S-9, Method: PREINCUBATION): inactive; negative
mutagenic call (Strain/Indicator: TA100, Metabolic Activation: TOBACCO CELLS, Method: PREINCUBATION): inactive; negative
mutagenic call (Strain/Indicator: TA104, Metabolic Activation: HAMSTER, LIVER, S-9, AROCLOR 1254, NADPH GENERATING SYSTEM, CYTOSOL, Method: PREINCUBATION): active; positive
mutagenic call (Strain/Indicator: TA104, Metabolic Activation: HAMSTER, LIVER, S-9, AROCLOR 1254, Method: PREINCUBATION): active; positive
mutagenic call (Strain/Indicator: TA104, Metabolic Activation: HAMSTER, LIVER, S-9, Method: PREINCUBATION): active; positive
mutagenic call (Strain/Indicator: TA104, Metabolic Activation: MICROSOMES, CYTOSOL, Method: PREINCUBATION): active; positive
mutagenic call (Strain/Indicator: TA104, Metabolic Activation: RAT, LIVER, S-9, AROCLOR 1254, Method: PREINCUBATION): active; positive
mutagenic call (Strain/Indicator: TA104, Metabolic Activation: RAT, LIVER, S-9, Method: PREINCUBATION): active; positive
mutagenic call (Strain/Indicator: TA1530, Metabolic Activation: RAT, LIVER, S-9, AROCLOR 1254, Method: PREINCUBATION): active; positive
mutagenic call (Strain/Indicator: TA1530, Metabolic Activation: RAT, LIVER, S-9, Method: STANDARD PLATE): active; positive
mutagenic call (Strain/Indicator: TA1535 (PSK1002), Metabolic Activation: RAT, LIVER, S-9, ISONIAZID, Method: PREINCUBATION): active; positive
mutagenic call (Strain/Indicator: TA1535, Metabolic Activation: NONE, Method: PREINCUBATION): inactive; negative
mutagenic call (Strain/Indicator: TA1535, Metabolic Activation: RAT LIVER S-9, ETHANOL (4%), Method: PREINCUBATION): inactive; negative
mutagenic call (Strain/Indicator: TA1535, Metabolic Activation: RAT, LIVER, HEPATOCYTES, Method: PREINCUBATION): active; positive
mutagenic call (Strain/Indicator: TA1535, Metabolic Activation: RAT, LIVER, MICROSOMES, KANECHLOR 500, Method: PREINCUBATION): active; positive
mutagenic call (Strain/Indicator: TA1535, Metabolic Activation: RAT, LIVER, S-9, AROCLOR 1254, (PREGNANT MARE SERUM), Method: PREINCUBATION): active; positive
mutagenic call (Strain/Indicator: TA1535, Metabolic Activation: RAT, LIVER, S-9, AROCLOR 1254, Method: PREINCUBATION): active; positive
mutagenic call (Strain/Indicator: TA1535, Metabolic Activation: RAT, LIVER, S-9, AROCLOR, Method: PREINCUBATION): active; positive
mutagenic call (Strain/Indicator: TA1535, Metabolic Activation: RAT, LIVER, S-9, KC500 OR PHENOBARBITAL, Method: LIQUID SUSPENSION): active; positive
mutagenic call (Strain/Indicator: TA1535, Metabolic Activation: RAT, LIVER, S-9, SODIUM PHENOBARBITONE, Method: PREINCUBATION): active; positive
mutagenic call (Strain/Indicator: TA1535, Metabolic Activation: RAT, LIVER, S-9, Method: PREINCUBATION): inactive; negative
mutagenic call (Strain/Indicator: TA1535, Metabolic Activation: S-9, Method: PREINCUBATION): active; positive
